A short description of data set [1]: Stability to human liver microsomes. It counts as in vitro ADME. As to conditions: pH 7.4, 37 °C, 0.5 mg/mL protein, NADPH regenerating system, 60 min. A general note: Liver microsomes are vesicles of endoplasmic reticulum, rich in cytochrome P450 enzymes.
The test system of data set [2] is replicating Mycobacterium tuberculosis. Put plainly: MIC, microplate Alamar blue assay (MABA), 8 day. It counts as cell-based. The conditions noted are these: 192 h, read-out: MIC MABA (aerobic). Background: Alamar Blue is a resazurin reagent that responds to reducing activity.
For data set [3], the system named is M. tuberculosis bacteria in the non-replicating state. Put plainly: microbe, parasite or virus in culture. The class given is cell-based. The conditions noted are these: Mycobacterium tuberculosis, 264 h, low oxygen, 11 day, read-out: MIC LORA (anaerobic).
The test system of data set [4] is M. tuberculosis Erdman. Details: species or system BALB/c mice. As to conditions: mouse, po, 100 mg/kg.
A short description of data set [5]: Stability to mouse liver microsomes. The class given is in vitro ADME, CD-1 mouse. The conditions noted are these: pH 7.4, 37 °C, 0.5 mg/mL protein, NADPH regenerating system, 60 min.
For data set [6], the system named is M. tuberculosis Erdman. It counts as in vivo, BALB/c mice. The conditions noted are these: mouse, in vivo, po, 100 mg/kg.
The conditions of data set [7]: CD-1 mice, oral, 40 mg/kg; for t½ (h) plasma: suspension in 0.5% carboxymethylcellulose/0.08% Tween 80.
A short description of another data set: in vivo. The conditions noted are these: mouse, po, 40 mg/kg.

≈ marks a conversion by molar mass, not a printed value.

Consider `O=[N+]([O-])c1cn2c(n1)OC[C@@H](OCc1ccc(/C=C/c3ccc(OC(F)(F)F)cc3)cc1)C2` [compound 31, (6S)-2-Nitro-6-[(4-{(E)-2-[4-(trifluoromethoxy)phenyl]ethenyl}benzyl)oxy]-6,7-dihydro-5H-imidazo[2,1-b][1,3]oxazine], for which the figures for the share remaining at 1 h, 1 µM in data set [1] and in data set [5] were 99% and 98%, respectively. In addition, the MIC in data set [2] turned out to be 0.02 µM (≈ 0.00923 µg/mL); in data set [3], 27 µM (≈ 12.5 µg/mL). Further, the “In vivo efficacy vs PA-824, Acute” value with M. tuberculosis Erdman [4] is recorded as 5.8.

For the compound `O=[N+]([O-])c1cn2c(n1)OC[C@@H](OCc1ccc(Cc3ccc(OC(F)(F)F)cc3)cc1)C2` [compound 17, (6S)-2-Nitro-6-({4-[4-(trifluoromethoxy)benzyl]benzyl}oxy)-6,7-dihydro-5H-imidazo[2,1-b][1,3]oxazine], the amount remaining – broadly, the share of the starting amount still present when the sample was taken – at 1 h, 1 µM came out at 85% in data set [1] and 70% in data set [5]. Besides, the MIC in data set [2] was determined as 0.02 µM (≈ 0.00899 µg/mL); in data set [3], 1.1 µM (≈ 0.494 µg/mL).

For the compound `O=[N+]([O-])c1cn2c(n1)OC[C@@H](OCc1ccc(-c3ccc(F)cc3)nc1)C2` [compound 5, (6S)-6-{[6-(4-Fluorophenyl)-3-pyridinyl]methoxy}-2-nitro-6,7-dihydro-5H-imidazo[2,1-b][1,3]oxazine], the “In vivo efficacy vs PA-824, Chronic” value with M. tuberculosis Erdman [6] stood at 20. Further, in data set [7], the Cmax plasma was determined as 5300 ng/mL and the “t½ (h) plasma” value is recorded as 2.7 h. In addition, in data set [2], the MIC was determined as 0.06 µM (≈ 0.0222 µg/mL). Moreover, in data set [3], the MIC turned out to be 2.9 µM (≈ 1.07 µg/mL). The “In vivo efficacy vs PA-824, Acute” value with M. tuberculosis Erdman [4] was 7.8. The exposure (AUC) (as a rule, the area under the concentration-time curve, a measure of exposure) in the data set “in vivo” was 136 µg·h/mL.

`O=[N+]([O-])c1cn2c(n1)OC[C@@H](OCC#Cc1ccc(-c3ccc(OC(F)(F)F)cc3)cc1)C2` [compound 30, (6S)-2-Nitro-6-({3-[4'-(trifluoromethoxy)[1,1'-biphenyl]-4-yl]-2-propynyl}oxy)-6,7-dihydro-5H-imidazo[2,1-b][1,3]oxazine]: in the data set with M. tuberculosis Erdman [6], the “In vivo efficacy vs PA-824, Chronic” value was determined as 11. Moreover, the Cmax plasma in data set [7] turned out to be 570 ng/mL. In data set [7], the “t½ (h) plasma” value is on record as 7.5 h. For the same compound, the MIC in data set [2] worked out at 0.16 µM (≈ 0.0735 µg/mL); in data set [3], 0.99 µM (≈ 0.455 µg/mL). Besides, the “In vivo efficacy vs PA-824, Acute” value with M. tuberculosis Erdman [4] was 89. Also, the exposure (AUC) in the data set “in vivo” is 13.6 µg·h/mL.

Consider `O=[N+]([O-])c1cn2c(n1)OC[C@@H](OCc1ccc(-c3ccc(OC(F)(F)F)cc3)cn1)C2` [compound 7, (6S)-2-Nitro-6-({5-[4-(trifluoromethoxy)phenyl]-2-pyridinyl}methoxy)-6,7-dihydro-5H-imidazo[2,1-b][1,3]oxazine], for which the “In vivo efficacy vs PA-824, Chronic” value with M. tuberculosis Erdman [6] is 0.9. In addition, in data set [7], the “t½ (h) plasma” value was 5.4 h. Also, the MIC in data set [2] was determined as 0.065 µM (≈ 0.0284 µg/mL); in data set [3], 3.7 µM (≈ 1.61 µg/mL). Moreover, in the data set with M. tuberculosis Erdman [4], the “In vivo efficacy vs PA-824, Acute” value is 27. Besides, the exposure (AUC) in the data set “in vivo” worked out at 427 µg·h/mL.

`O=[N+]([O-])c1cn2c(n1)OC[C@@H](OCc1ccc(-c3ccc(OC(F)(F)F)cc3)cc1F)C2` [compound 12, (6S)-6-{[3-Fluoro-4'-(trifluoromethoxy)[1,1'-biphenyl]-4-yl]methoxy}-2-nitro-6,7-dihydro-5H-imidazo[2,1-b][1,3]oxazine]: the “In vivo efficacy vs PA-824, Chronic” value with M. tuberculosis Erdman [6] was 16. This compound also registered a Cmax plasma in data set [7] of 6700 ng/mL. Also, the MIC was determined as 0.017 µM (≈ 0.00771 µg/mL) in data set [2] and 1.2 µM (≈ 0.544 µg/mL) in data set [3]. The “In vivo efficacy vs PA-824, Acute” value in the data set with M. tuberculosis Erdman [4] is given as 33. For the same compound, in “in vivo”, the AUC turned out to be 549 µg·h/mL.

Turning to `O=[N+]([O-])c1cn2c(n1)OC[C@@H](OCc1ccc(-c3ccc(OC(F)(F)F)cc3)nc1)C2` [compound 6, (6S)-2-Nitro-6-({6-[4-(trifluoromethoxy)phenyl]-3-pyridinyl}methoxy)-6,7-dihydro-5H-imidazo[2,1-b][1,3]oxazine], the “In vivo efficacy vs PA-824, Chronic” value with M. tuberculosis Erdman [6] came to 15. Also, the “t½ (h) plasma” value in data set [7] was 24 h. Also, the values for the MIC in data set [2] and in data set [3] were 0.05 µM (≈ 0.0218 µg/mL) and 0.54 µM (≈ 0.236 µg/mL), respectively. For the same compound, in the data set on M. tuberculosis Erdman [4], the “In vivo efficacy vs PA-824, Acute” value is >89. Besides, in the data set “in vivo”, the exposure (AUC) was found to be 81 µg·h/mL.

`O=[N+]([O-])c1cn2c(n1)OC[C@@H](OCc1ccn(-c3ccc(OC(F)(F)F)cc3)n1)C2` [compound 10, (6S)-2-nitro-6-({1-[4-(trifluoromethoxy)phenyl]-1H-pyrazol-3-yl}methoxy)-6,7-dihydro-5H-imidazo[2,1-A][1,3]oxazine]: the fraction remaining at 1 h, 1 µM was 87% in data set [1] and 67% in data set [5]. Moreover, the MIC in data set [2] was 0.05 µM (≈ 0.0213 µg/mL); in data set [3], 0.61 µM (≈ 0.259 µg/mL). In addition, the “In vivo efficacy vs PA-824, Acute” value with M. tuberculosis Erdman [4] is 41. Further, the area under the curve (AUC) in the data set “in vivo” was found to be 31.5 µg·h/mL.

On to `O=[N+]([O-])c1cn2c(n1)OC[C@@H](OCc1ccc(C#Cc3ccc(C(F)(F)F)nc3)cn1)C2` [compound 25, (6S)-2-Nitro-6-[(5-{[6-(trifluoromethyl)-3-pyridinyl]ethynyl}-2-pyridinyl)methoxy]-6,7-dihydro-5H-imidazo[2,1-b][1,3]oxazine], for which the values for the amount remaining at 1 h, 1 µM in data set [1] and in data set [5] were 88% and 91%, respectively. The MIC was found to be 0.035 µM (≈ 0.0156 µg/mL) in data set [2] and 0.74 µM (≈ 0.33 µg/mL) in data set [3].

`O=[N+]([O-])c1cn2c(n1)OC[C@@H](OCc1ccc(-c3ccc(C(F)(F)F)cn3)cc1)C2` [compound 8, (6S)-2-Nitro-6-({4-[5-(trifluoromethyl)-2-pyridinyl]benzyl}oxy)-6,7-dihydro-5H-imidazo[2,1-b][1,3]oxazine]: the “In vivo efficacy vs PA-824, Chronic” value with M. tuberculosis Erdman [6] is listed as 1.7. In data set [7], the Cmax plasma is 1100 ng/mL and the “t½ (h) plasma” value is 8.8 h. Also, the MIC in data set [2] is 0.06 µM (≈ 0.0252 µg/mL). Besides, the MIC in data set [3] was found to be 1 µM (≈ 0.42 µg/mL). Also, in the data set with M. tuberculosis Erdman [4], the “In vivo efficacy vs PA-824, Acute” value worked out at 33. The compound further gave an area under the curve (AUC) in “in vivo” of 67.3 µg·h/mL.

For `O=[N+]([O-])c1cn2c(n1)OC[C@@H](OCc1ccc(-c3ccc(OC(F)(F)F)cc3Cl)cc1)C2` [compound 1, (6S)-6-{[2'-Chloro-4'-(trifluoromethoxy)[1,1'-biphenyl]-4-yl]methoxy}-2-nitro-6,7-dihydro-5H-imidazo[2,1-b][1,3]oxazine], the “In vivo efficacy vs PA-824, Chronic” value in the data set with M. tuberculosis Erdman [6] is 2.1. The MIC came to 0.04 µM (≈ 0.0188 µg/mL) in data set [2] and 0.78 µM (≈ 0.366 µg/mL) in data set [3]. For the same compound, the “In vivo efficacy vs PA-824, Acute” value in the data set with M. tuberculosis Erdman [4] worked out at 23. Also, the AUC in the data set “in vivo” worked out at 3360 µg·h/mL.

(Values after patent EP2459571B1, “NITROIMIDAZOOXAZINES AND THEIR USES IN ANTI-TUBERCULAR THERAPY” (priority 2009, dated 2011).)
